In brackets after ≈: the same amount, converted by molar mass. Read-outs that look alike come from different tables or passages of the source.
Columns and labels:
[1] = test system: murine peritoneal macrophages; test: Cytotoxicity (MTT) in murine peritoneal macrophages; assay type: cell-based, Balb/c (Mus musculus) mice; conditions: for CC50: peritoneal macrophages, MTT
Procedure: Peritoneal macrophages were extracted from Balb/c (Mus musculus) mice, from colonies of the Central Vivarium at the INPA, with the approval of the Ethics Committee on the Use of Animals (CEUA - INPA 023/2020; Appendix A). The animals were anesthetized with ketamine hydrochloride (Dopalen®), and a ventral incision was made. The RPMI medium was introduced; and the abdominal massage was performed for macrophage activation, followed by aspiration, and centrifuged at 1,500 g for 10 min. Cell concentration was adjusted to 10[4] macrophages/mL[6].
(§1) The assay was performed in 96-well plates (KASVI®). The RPMI medium was added to the cells at a concentration of 10[4] cells/mL/well. The metal complexes were added at concentrations of […] in triplicate as […], and Glucantime® was used at the same concentration as the metal complexes. The negative controls used DMSO at 4 concentrations (2%, 1%, 0.50%, and 0.25%), and the RMPI medium containing the cells remained exposed to the substance for up to 24, 48, and 72 h.
(§2) After each period, a solution of [3-(4,5-dimethylthiazol-2yl) -2,5-diphenyltetrazolium] bromide (MTT) was added to the wells at (concentration of 0.5 mg/mL). The plates were incubated for 4 h at 37 °C and then subjected to spectrophotometry (Biotek®) at an absorbance of 590 nm. Three independent trials were performed with peritoneal macrophages and human monocytes.

mammalian TrxR = test system: mammalian TrxR; parameters: method as in PMID 33238608; conditions: purified enzyme and cell extracts; cited from earlier work
human monocytes = test: Cytotoxicity (MTT) in human monocytes; assay type: cell-based; conditions: for CC50: MTT
Procedure: Human monocytes were obtained after approval from the Research Ethics Committee (CEP-UFAM: 29406319.2.0000.5020) (Appendix B). Blood samples were collected from all patients. Phosphate-buffered saline (PBS) 1 x was added, and the blood/PBS was added gently on Ficoll-Histopaque (Sigma-Aldrich®) [density of 1077] and centrifuged for 30 min/200 g[7]. Peripheral blood mononuclear cells were collected, added PBS 1 x, and centrifuged for 3 min at 400 × g. The cell concentration was adjusted to 10[4] monocytes/mL[7].
as §1, §2

[2] = test system: lesions caused by L. (L.) amazonensis; test: Topical treatment of lesions in hamsters infected with L. (L.) amazonensis; assay type: in vivo, Mesocricetus auratus; conditions: for Infected cells / internalized amastigotes in lesion fragments: after 30 days of treatment; for Lesion volume (in words): gel topically 0.3 mg/day once a day, Glucantime IM 3 mg (Sb5)/kg/day, 30 days, Ag2 effect after the 14th day
Procedure: (§3) To prepare the Carbopol®-based gel, Nipagin® was mixed with distilled water until its total solubilization, and then Carpobol® was added. Then, the metal complex was added and incorporated separately in each gel, and triethonolamine was added gradually until a thick gel was obtained. Finally, the metal complexes were mixed at a concentration of 3 mg/L, a value defined for comparative purposes with the positive control of the study (Glucantime®) administered at the same concentration via the intramuscular (IM) route.
(§4) For the assays, 72 adult male aged 60-days golden hamsters (Mesocricetus auratus) that were free of pathogens and had been previously obtained from the Central Vivarium at the INPA (CEUA 060/2018) were used [Appendix C]. The animals were housed in stainless steel cages in air-conditioned rooms, with controlled light, temperature (22-25 °C), humidity (50-60%), and food and water ad libitum.
(§5) Animals were separated into six groups. Five groups were infected with 100 µL of a solution containing 10[6] promastigote/mL of Leishmania spp. The first experiment involved 36 animals infected with L. (L.) amazonensis, and the second experiment involved 36 animals infected with L. (V.) guyanensis. Animals were divided into the following groups:
• Group I: Uninfected control • Group II: Untreated, infected control • Group III: Infected and treated with Glucantime® (IM) • Group IV: Infected and treated with Ag1 (lesions treated topically once a day) • Group V: Infected and treated with Ag2 (lesions treated topically once a day) • Group VI: Infected and treated with gel without the addition of complexes (lesions treated topically once a day)
To evaluate the course of infection, the total volume of the lesion (length, width, and height) was measured using a caliper (Zaas® Precision). Animals were weighed once per week. After 30 days of treatment, the animals were euthanized using ketamine hydrochloride (Dopalen®) combined with xylazine hydrochloride (Anasedan®) following the Animal Use Ethics Commission (CEUA) protocols (060/2018).
(§6) For parasitological studies, a sample of the tissue from the lesion region lesion in each animal was sectioned, and the fragment was printed on a glass slide and stained using the Panoptic kit (Laborclin®). The slides were evaluated using optical microscopy, 30 fields were counted, and the analysis and quantification of infected and uninfected cells and the quantity of internalized amastigote forms were performed. Fragments of each animal’s skin lesions and liver were also sectioned and cultured in an NNN medium for 7 days. After this period, an aliquot containing the fragments was evaluated using optical microscopy for parasitological analysis.
For the in vivo results, we used two-way analysis of variance to evaluate the statistical significance between the groups, followed by the Tukey test to compare the means of the groups at a 95% confidence interval.

[3] = test system: large panel of cancer cell lines; parameters: method as in PMID 33238608; conditions: cited from earlier work
[4] = test system: amastigote forms of L. (L.) amazonensis in human monocytes; test: Assay with amastigote forms of L. (L.) amazonensis in human monocytes; assay type: cell-based, Leishmania (Leishmania) amazonensis
Procedure: (§7) The assay against amastigote forms was performed using murine peritoneal macrophages and human monocytes, obtained as described for the cytotoxicity assay. The cells were incubated for 48 h in a 24 well-plate containing glass coverslips with the RPMI medium, and cell volume adjusted to 10[5] macrophages/monocyte/mL.
(§8) The adhered cells were infected with promastigote forms of Leishmania spp. and left for 2 h. The test substances were then added at the concentrations used in previous trials and exposed for 24, 48, and 72 h. Coverslips were stained using a Panoptic kit (Laborclin® - Laborclin Products for Laboratories Ltd, Pinhais, Brazil) and quantified using optical microscopy at 400 × magnification. A total of 100 cells were quantified to evaluate the number of infected and uninfected macrophages and internalized amastigotes. Three independent assays were performed on peritoneal macrophages and human monocytes.
(§9) Statistical analysis was performed using linear regression to calculate IC50 using GraphPad Prism® (GraphPad Software Inc. version 6.0, for Windows). Results are expressed as mean ± standard deviation.

[5] = test system: amastigote forms of L. (L.) amazonensis internalized in murine peritoneal macrophages; test: Assay with amastigote forms of L. (L.) amazonensis in peritoneal macrophages; assay type: cell-based, Leishmania (Leishmania) amazonensis
Procedure: as §7, §8
(§10) The SI is the relationship between the cytotoxic activity of the tested compound and its anti-leishmanial activity. In our study, the SI was calculated from the ratio of cytotoxicity for macrophages/monocytes with a cytotoxic concentration at 50% (CC50) and action against amastigote forms in each of these cell types with an inhibitory concentration at 50% (IC50), using the equation: SI = CC50IC50-AMA^3
as §9

[6] = test system: amastigote forms of L. (V.) guyanensis in murine peritoneal macrophages; test: Assay with amastigote forms of L. (V.) guyanensis in peritoneal macrophages; assay type: cell-based, Leishmania (Viannia) guyanensis
Procedure: as §7, §8, §10, §9

[7] = test system: amastigote forms of L. (V.) guyanensis in human monocytes; test: Assay with amastigote forms of L. (V.) guyanensis in human monocytes; assay type: cell-based, Leishmania (Viannia) guyanensis
Procedure: as §7, §8, §9

[8] = test system: lesions caused by L. (V.) guyanensis; test: Topical treatment of lesions in hamsters infected with L. (V.) guyanensis; assay type: in vivo, Mesocricetus auratus
Procedure: as §3, §4
as §5, with “groups: […]” for “groups:”
To evaluate the course of infection, the total volume of the lesion (length, width, and height) was measured using a caliper (Zaas® Precision). […]
as §6, with “Fragments of each animal’s skin lesions and liver were also sectioned and cultured in an NNN medium for 7 days.” left out, “analysis. […]” for “analysis.”

[9] = test system: promastigote forms of Leishmania (Leishmania) amazonensis (IM5584); test: Assay with promastigote forms, L. (L.) amazonensis; assay type: cell-based
Procedure: (§11) We used the species L. (Leishmania) amazonensis [L. (L.) amazonensis] (MHOM/BR/2009/IM5584) and L. (Viannia) guyanensis [L. (V.) guyanensis] (MHOM/BR/1975/M4147), which had been cultivated in the biphasic medium Novy - MacNeal - Nicolle (NNN) and amplified in the RPMI liquid medium (Himedia®). The culture was centrifuged for 15 min at 4,400 g. Parasites were adjusted to a concentration of 10[4] parasites/mL.
(§12) The parasites were used at a concentration of 10[4] parasites/mL. The assay was performed in 96-well plates (KASVI®), and then the same procedure and concentrations of the substances were used in the cytotoxicity assay, with negative control and culture medium containing parasites. The activity of the complexes was evaluated at 24, 48, and 72 h intervals using a Neubauer chamber. In addition, cellular viability was evaluated using the assay. Three independent tests were conducted.
as §9

[10] = test system: promastigote forms of Leishmania (Viannia) guyanensis (M4147); test: Assay with promastigote forms, L. (V.) guyanensis; assay type: cell-based
Procedure: as §11, §12, §9

[11] = test system: amastigote of L. (L.) amazonensis; parameters: method as in doi:10.1016/j.poly.2014.05.004; conditions: cited from earlier work
[12] = L. (L.) amazonensis (IM5584), 24 h, read-out: IC50 values, promastigote forms
[13] = L. (L.) amazonensis (IM5584), 48 h, read-out: IC50 values, promastigote forms
[14] = L. (L.) amazonensis (IM5584), 72 h, read-out: IC50 values, promastigote forms

| Compound | Infected cells / internalized amastigotes in lesion fragments [2] | Lesion volume (in words) [2] | IC50 ([4]; 24 h) | IC50 ([4]; 48 h) | IC50 ([4]; 72 h) | IC50 ([5]; 24 h) | IC50 ([5]; 48 h) | IC50 ([5]; 72 h) | IC50 ([6]; 24 h) | IC50 ([6]; 48 h) | IC50 ([6]; 72 h) | IC50 ([7]; 24 h) | IC50 ([7]; 48 h) | IC50 ([7]; 72 h) | IC50 [9, 12] | IC50 [9, 13] | IC50 [9, 14] | IC50 ([10]; 24 h) | IC50 ([10]; 48 h) | IC50 ([10]; 72 h) | other results |
| --- | --- | --- | --- | --- | --- | --- | --- | --- | --- | --- | --- | --- | --- | --- | --- | --- | --- | --- | --- | --- | --- |
| [Ag+].c1ccc(P(c2ccccc2)c2ccccc2)cc1.c1cnn([BH-](n2cccn2)n2cccn2)c1 [Ag2, [Ag(HBPz3)(PPh3)]] | statistically significant difference compared to the group without treatment | reduction in lesion volume | – | – | – | – | – | – | – | – | – | – | – | – | – | – | – | – | – | – | Cytotoxicity (in words) ([1]; murine peritoneal macrophages): did not show cytotoxic activity; TrxR inhibition (in words) (mammalian TrxR): very strong inhibitor; Cytotoxicity (in words) (human monocytes; human monocytes): did not show cytotoxic activity; Mean difference in lesion volume versus Glucantime ([2]; after the 14th day of treatment, no statistical difference): 4.38; Cytotoxic activity toward cancer cell lines (in words) [3]: remarkable cytotoxic activity |
| C1N2CN3CN1CP(C2)C3.C1N2CN3CN1CP(C2)C3.C1N2CN3CN1CP(C2)C3.C1N2CN3CN1CP(C2)C3.F[B-](F)(F)F.[Ag+] [Ag1, [Ag (PTA)4]BF4] | greater number of internalized amastigotes | evolution of lesions | 23.3 ± 1.04 µM | 69.04 ± 0.34 µM | 150.7 ± 0.91 µM | 6.09 ± 0.47 µM | 14.9 ± 0.41 µM | 23.8 ± 1.51 µM | 90.51 ± 0.7 µM | 105.1 ± 0.42 µM | 116 ± 1.58 µM | 109.2 ± 0.63 µM | 186.6 ± 0.57 µM | 270.3 ± 0.25 µM | < 10 µM | 69.2 ± 3.03 µM | 104 ± 1.47 µM | 75.14 ± 0.53 µM | 130 ± 2.94 µM | 228.9 ± 1.26 µM | Cytotoxicity (in words) [1]: toxic; Cytotoxicity (in words) (human monocytes): toxic; Number of amastigotes internalized in lesion ([8]; compared to the treated groups): highest number; Number of infected cells in lesion fragments ([8]; statistical difference compared to Glucantime): largest number of infected cells; IC50 ([9]; L. (L.) amazonensis, read-out: Activity class according to IC50, promastigotes): < 10 µM |
| meglumine antimoniate [Glucantime®, reference compound] | – | reduction in lesion volume | 294.6 ± 0.38 µM | 317.2 ± 1.75 µM | 391 ± 1.38 µM | 57.1 ± 0.77 µM | 279.2 ± 1.95 µM | 318.7 ± 1.48 µM | 48.2 ± 0.77 µM | 70.2 ± 1.62 µM | 101 ± 1.02 µM | 374.7 ± 0.64 µM | 372.6 ± 1.75 µM | 427.8 ± 1.32 µM | 292.1 ± 2.4 µM | 343.1 ± 2.37 µM | 435.6 ± 3.03 µM | 286.6 ± 1.28 µM | 376.5 ± 2.74 µM | 453.7 ± 3.18 µM | CC50 ([1]; 24 h): 179 ± 0.23 µM; CC50 ([1]; 48 h): 205.2 ± 1.25 µM; CC50 ([1]; 72 h): 212 ± 2.48 µM; CC50 (human monocytes; human monocytes, 24 h): 149 ± 1.52 µM; CC50 (human monocytes; human monocytes, 48 h): 255 ± 2.74 µM; CC50 (human monocytes; human monocytes, 72 h): 398.4 ± 1.18 µM; Viable parasites in cultures of lesion fragments (NNN medium) [8]: presence of viable parasites; Viable parasites in cultures of lesion fragments (NNN medium) [2]: Viable parasites were observed; Clinical cure ([2]; 30 days of treatment): no clinical cure was obtained |
| C[C@@H]1[C@H](O)[C@@H](C)/C=C/C=C/C=C/C=C/C=C/C=C/C=C/[C@H](O[C@@H]2O[C@H](C)[C@@H](O)[C@H](N)[C@@H]2O)C[C@@H]2O[C@](O)(C[C@@H](O)C[C@@H](O)[C@H](O)CC[C@@H](O)C[C@@H](O)CC(=O)O[C@H]1C)C[C@H](O)[C@H]2C(=O)O [amphotericin B®, amphotericin B] | – | – | – | – | – | – | – | – | – | – | – | – | – | – | – | – | – | – | – | – | IC50 amastigote [11]: 1.20 mg/L (≈ 1.3 µM) |
